Measured values: paper PMC7180739, “Aggregation and Molecular Properties of β-Glucosidase Isoform II in Chayote (Sechium edule)” (Molecules, 2020)

system: T1, β-glucosidase isoform II (β-glucosidase II, Sebg); assay: p-nitrophenol release, nonlinear regression; format: biochemical, Sechium edule; conditions: 40 °C, 0.2 M sodium citrate pH 5.0 (pH 5.5)
T1 construct: native, purified from fruit epicarp and mesocarp
Description: p-nitrophenol release, nonlinear regression on β-glucosidase isoform II (β-glucosidase II, Sebg)

| SMILES | Km |
| --- | --- |
| C[C@H]1O[C@@H](Oc2ccc([N+](=O)[O-])cc2)[C@H](O)[C@@H](O)[C@H]1O [pNPFuc, p-Nitrophenyl-β-D-fucopyranoside] | 16.1 ± 2.62 mM |
| O=[N+]([O-])c1ccc(O[C@@H]2O[C@H](CO)[C@H](O)[C@H](O)[C@H]2O)cc1 [pNPGal, p-Nitrophenyl-β-D-galactopyranoside] | 5.72 ± 0.45 mM |
| O=[N+]([O-])c1ccc(O[C@@H]2O[C@H](CO)[C@@H](O)[C@H](O)[C@H]2O)cc1 [pNPGlc, p-Nitrophenyl-β-D-glucopyranoside] | 4.59 ± 0.49 mM |
